Results published in the NIST ThermoML archive (doi:10.1016/j.fluid.2019.03.019).
Numbers after ± are expanded uncertainties.

Conditions: Liquid; for mass density: 298.15 K, 101.33 kPa, Vibrating tube method; for vapor or sublimation pressure: Closed cell (Static) method

Row | mass density | vapor or sublimation pressure (393.15 K) | vapor or sublimation pressure (383.15 K) | vapor or sublimation pressure (403.15 K) | vapor or sublimation pressure (413.15 K) | vapor or sublimation pressure (362.65 K) | vapor or sublimation pressure (363.15 K) | vapor or sublimation pressure (391.95 K) | vapor or sublimation pressure (392.95 K) | vapor or sublimation pressure (420.95 K) | vapor or sublimation pressure (422.95 K) | vapor or sublimation pressure (423.15 K) | SMILES
1 | 785.09 ± 0.13 kg/m3 | 429 ± 7 kPa |  |  |  |  |  |  |  |  |  |  | CCO [ethanol]
2 | 1063.24 ± 0.1 kg/m3 |  | 187 ± 6 kPa | 320 ± 6 kPa | 414 ± 6 kPa |  |  |  |  |  |  |  | COC(=O)OC [dimethyl carbonate]
3 |  | 199 ± 6 kPa |  |  |  |  |  |  |  |  |  |  | O [water]
4 | 786.42 ± 0.13 kg/m3 | 640 ± 7 kPa | 481 ± 6 kPa | 843 ± 7 kPa | 1092 ± 7 kPa | 251 ± 6 kPa | 255 ± 6 kPa | 618 ± 6 kPa | 636 ± 7 kPa | 1316 ± 7 kPa | 1380 ± 8 kPa | 1387 ± 8 kPa | CO [methanol]
